≈ marks a conversion by molar mass, not a printed value.
Legend:
Assay type in all cases: functional
Staphylococcus aureus [1] = experiment: Antibacterial activity against Staphylococcus aureus ATCC 25923 at 10U by disc diffusion method
Bacillus cereus [2] = experiment: Antibacterial activity against Bacillus cereus ATCC […] at 1 ug after 24 hrs by disc diffusion method; conditions: read-out: IZ
Candida albicans [3] = experiment: Antifungal activity against Candida albicans at 50 ug after 48 hrs by disc diffusion method; conditions: read-out: IZ
Escherichia coli [4] = experiment: Antibacterial activity against Escherichia coli ATCC 11230 at 10 ug after 24 hrs by disc diffusion method; conditions: ATCC 11230, 24 h, read-out: IZ
Candida albicans [5] = experiment: Antifungal activity against Candida albicans after 48 hrs by disc diffusion method
Candida albicans [6] = experiment: Antifungal activity against Candida albicans by microdilution broth method
Bacillus cereus [7] = experiment: Antibacterial activity against Bacillus cereus ATCC […] by microdilution broth method
Staphylococcus aureus [8] = experiment: Antibacterial activity against Staphylococcus aureus ATCC 25923 after 24 hrs by disc diffusion method
Listeria monocytogenes [9] = experiment: Antibacterial activity against Listeria monocytogenes Li6 isolate after 24 hrs by disc diffusion method
Listeria monocytogenes [10] = experiment: Antibacterial activity against Listeria monocytogenes Li6 isolate by microdilution broth method
Escherichia coli [11] = experiment: Antibacterial activity against Escherichia coli ATCC 11230 by microdilution broth method
Escherichia coli [12] = experiment: Antibacterial activity against Escherichia coli ATCC 11230 after 24 hrs by disc diffusion method
Staphylococcus aureus [13] = experiment: Antibacterial activity against Staphylococcus aureus ATCC 25923 by microdilution broth method
Bacillus cereus [14] = experiment: Antibacterial activity against Bacillus cereus ATCC […] after 24 hrs by disc diffusion method

Compound | inhibition zone (IZ) (Staphylococcus aureus [1]) [mm] | zone of inhibition at 1 µg/disc (Bacillus cereus [2]) [mm] | zone of inhibition at 50 µg/disc (Candida albicans [3]) [mm] | zone of inhibition at 10 µg/disc (Escherichia coli [4]) [mm] | inhibition zone (IZ) (Candida albicans [5]) [mm] | MIC (Candida albicans [6]) [µg/mL] | MIC (Bacillus cereus [7]) [µg/mL] | inhibition zone (IZ) (Staphylococcus aureus [8]) [mm] | inhibition zone (IZ) (Listeria monocytogenes [9]) [mm] | MIC (Listeria monocytogenes [10]) [µg/mL] | MIC (Escherichia coli [11]) [µg/mL] | inhibition zone (IZ) (Escherichia coli [12]) [mm] | MIC (Staphylococcus aureus [13]) [µg/mL] | inhibition zone (IZ) (Bacillus cereus [14]) [mm]
CC1(C)S[C@@H]2[C@H](NC(=O)Cc3ccccc3)C(=O)N2[C@H]1C(=O)O [PENICILLIN G] | 19 | – | – | – | – | – | – | – | – | – | – | – | – | –
Cc1onc(-c2ccccc2)c1C(=O)N[C@@H]1C(=O)N2[C@@H]1SC(C)(C)[C@@H]2C(=O)O [OXACILLIN] | – | 9 | – | – | – | – | – | – | – | – | – | – | – | –
CC(=O)N1CCN(c2ccc(OC[C@H]3CO[C@](Cn4ccnc4)(c4ccc(Cl)cc4Cl)O3)cc2)CC1 [KETOCONAZOLE] | – | – | 16 | – | – | – | – | – | – | – | – | – | – | –
CC1(C)S[C@@H]2[C@H](NC(=O)[C@H](N)c3ccccc3)C(=O)N2[C@H]1C(=O)O [AMPICILLIN] | – | – | – | 9 | – | – | – | – | – | – | – | – | – | –
CCCS(=O)(=O)NCCCNS(=O)(=O)CCC | – | – | – | – | 12 | 532 (≈ 1860 µM) | 380 (≈ 1330 µM) | 11 | 11 | 532 (≈ 1860 µM) | 228 (≈ 796 µM) | 12 | 456 (≈ 1590 µM) | –
CCCS(=O)(=O)NCCCCNS(=O)(=O)CCC | – | – | – | – | – | 336 (≈ 1120 µM) | 336 (≈ 1120 µM) | – | – | 228 (≈ 759 µM) | 240 (≈ 799 µM) | 12 | 336 (≈ 1120 µM) | –
CCCCS(=O)(=O)NCCNS(=O)(=O)CCCC | – | – | – | – | – | 324 (≈ 1080 µM) | 243 (≈ 809 µM) | – | – | 216 (≈ 719 µM) | 243 (≈ 809 µM) | 10 | 216 (≈ 719 µM) | –
CCCS(=O)(=O)NCCNS(=O)(=O)CCC | – | – | – | – | – | 300 (≈ 1100 µM) | 250 (≈ 918 µM) | 12 | 16 | 300 (≈ 1100 µM) | 150 (≈ 551 µM) | 11 | 300 (≈ 1100 µM) | –
CCCCS(=O)(=O)NCCCCNS(=O)(=O)CCCC | – | – | – | – | 12 | 555 (≈ 1690 µM) | 463 (≈ 1410 µM) | 10 | – | 648 (≈ 1970 µM) | 555 (≈ 1690 µM) | 11 | 648 (≈ 1970 µM) | –
CCCCS(=O)(=O)NCCCCCNS(=O)(=O)CCCC | – | – | – | – | 13 | 540 (≈ 1580 µM) | 540 (≈ 1580 µM) | – | – | 432 (≈ 1260 µM) | 486 (≈ 1420 µM) | 12 | 432 (≈ 1260 µM) | –
CCCCS(=O)(=O)NCCCNS(=O)(=O)CCCC | – | – | – | – | 10 | 315 (≈ 1000 µM) | 180 (≈ 572 µM) | – | 11 | 225 (≈ 715 µM) | 225 (≈ 715 µM) | 10 | 270 (≈ 859 µM) | 10
